# Source: PubChem BioAssay AID1963837 (Molecular Pharmacology Branch, DTP, NCI, 2024)
# System: 843126-344-R-J1-PDC complex spheroid viability
# Test: Anticancer human tumor 843126-344-R-J1-PDC patient-derived melanoma cell line growth inhibition [POLQ]
# Settings: for IC50: curve of first compound; for viability, T/C: stronger effect = lower value
# How it was run: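 Complex spheroid viability model combining PDC tumour cells with endothelial (HUVEC) and MSC stromal cells. Novobiocin, ART-558 or RP6685 were tested singly and in combination with standard and investigational anticancer drugs. Each was titrated in half-log steps from near clinical Cmax, or from 10 microM where Cmax was unknown.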
# [1] = second compound 0.0316 µM, first compound 0.0316 µM
# [2] = second compound 0.0316 µM, first compound 0.1 µM
# [3] = second compound 0.0316 µM, first compound 0.316 µM
# [4] = second compound 0.0316 µM, first compound 1 µM
# [5] = second compound 0.0316 µM, first compound 3.16 µM
# [6] = second compound 0.0316 µM, first compound 10 µM
# [7] = second compound 0.1 µM, first compound 0.0316 µM
# [8] = second compound 0.1 µM, first compound 0.1 µM
# [9] = second compound 0.1 µM, first compound 0.316 µM
# [10] = second compound 0.1 µM, first compound 1 µM
# [11] = second compound 0.1 µM, first compound 3.16 µM
# [12] = second compound 0.1 µM, first compound 10 µM
# [13] = second compound 0.316 µM, first compound 0.0316 µM
# [14] = second compound 0.316 µM, first compound 0.1 µM
# [15] = second compound 0.316 µM, first compound 0.316 µM
# [16] = second compound 0.316 µM, first compound 1 µM
# [17] = second compound 0.316 µM, first compound 3.16 µM
# [18] = second compound 0.316 µM, first compound 10 µM
# [19] = second compound 1 µM, first compound 0.0316 µM
# [20] = second compound 1 µM, first compound 0.1 µM
# [21] = second compound 1 µM, first compound 0.316 µM
# [22] = second compound 1 µM, first compound 1 µM
# [23] = second compound 1 µM, first compound 3.16 µM
# [24] = second compound 1 µM, first compound 10 µM
# [25] = second compound 3.16 µM, first compound 0.0316 µM
# [26] = second compound 3.16 µM, first compound 0.1 µM
# [27] = second compound 3.16 µM, first compound 0.316 µM
# [28] = second compound 3.16 µM, first compound 1 µM
# [29] = second compound 3.16 µM, first compound 3.16 µM
# [30] = second compound 3.16 µM, first compound 10 µM
# [31] = second compound 10 µM, first compound 0.0316 µM
# [32] = second compound 10 µM, first compound 0.1 µM
# [33] = second compound 10 µM, first compound 0.316 µM
# [34] = second compound 10 µM, first compound 1 µM
# [35] = second compound 10 µM, first compound 3.16 µM
# [36] = second compound 10 µM, first compound 10 µM
# 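Wherever viability, T/C is given: spheroids exposed to drugs for seven days before readout.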
smiles,measurement,setting,value
COc1ccc([C@@H](O)c2cc(-c3ncnc4cc(N5CCOCC5)ccc34)c(F)cc2Cl)nn1 + Nc1ccc(C#CCN(C(=O)Cc2ncc(C(F)(F)F)cc2C(F)(F)F)c2ccc(F)cc2)nn1,IC50,second compound 0.0316 µM,> 10 µM
same,IC50,second compound 0.1 µM,> 10 µM
same,IC50,second compound 0.316 µM,> 10 µM
same,IC50,second compound 1 µM,> 10 µM
same,IC50,second compound 3.16 µM,> 10 µM
same,IC50,second compound 10 µM,> 10 µM
same,"viability, T/C",[1],95.5%
same,"viability, T/C",[2],94.9%
same,"viability, T/C",[3],87.5%
same,"viability, T/C",[4],87.9%
same,"viability, T/C",[5],80.9%
same,"viability, T/C",[6],62.9%
same,"viability, T/C",[7],95.7%
same,"viability, T/C",[8],95.8%
same,"viability, T/C",[9],103%
same,"viability, T/C",[10],82.9%
same,"viability, T/C",[11],96%
same,"viability, T/C",[12],68.1%
same,"viability, T/C",[13],86%
same,"viability, T/C",[14],90.3%
same,"viability, T/C",[15],87%
same,"viability, T/C",[16],85.1%
same,"viability, T/C",[17],79.5%
same,"viability, T/C",[18],80.7%
same,"viability, T/C",[19],88.1%
same,"viability, T/C",[20],102%
same,"viability, T/C",[21],91.8%
same,"viability, T/C",[22],88.5%
same,"viability, T/C",[23],74.5%
same,"viability, T/C",[24],64%
same,"viability, T/C",[25],100%
same,"viability, T/C",[26],99.3%
same,"viability, T/C",[27],92%
same,"viability, T/C",[28],73.6%
same,"viability, T/C",[29],77.8%
same,"viability, T/C",[30],64.6%
same,"viability, T/C",[31],80.2%
same,"viability, T/C",[32],94.8%
same,"viability, T/C",[33],85.4%
same,"viability, T/C",[34],82.7%
same,"viability, T/C",[35],78.2%
same,"viability, T/C",[36],62.6%
COc1cc(C2c3cc4c(cc3C(OC3OC5COC(C)OC5C(O)C3O)C3COC(=O)C23)OCO4)cc(OC)c1O (stereo not drawn) + Cc1cccc(N(C)C(=O)C2C(O)CCN2c2nc(C)cc(C(F)(F)F)c2C#N)c1,IC50,second compound 0.0316 µM,8.76 µM
same,IC50,second compound 0.1 µM,8.26 µM
same,IC50,second compound 0.316 µM,6.01 µM
same,IC50,second compound 1 µM,> 10 µM
same,IC50,second compound 3.16 µM,5.47 µM
same,IC50,second compound 10 µM,3.78 µM
same,"viability, T/C",[1],86.5%
same,"viability, T/C",[2],81.5%
same,"viability, T/C",[3],77.9%
same,"viability, T/C",[4],92.3%
same,"viability, T/C",[5],55.3%
same,"viability, T/C",[6],49.3%
same,"viability, T/C",[7],83.2%
same,"viability, T/C",[8],103%
same,"viability, T/C",[9],100%
same,"viability, T/C",[10],68.9%
same,"viability, T/C",[11],72.8%
same,"viability, T/C",[12],45.5%
same,"viability, T/C",[13],82.1%
same,"viability, T/C",[14],84.1%
same,"viability, T/C",[15],92.7%
same,"viability, T/C",[16],71.8%
same,"viability, T/C",[17],61.2%
same,"viability, T/C",[18],42.1%
same,"viability, T/C",[19],86.1%
same,"viability, T/C",[20],90.3%
same,"viability, T/C",[21],86.6%
same,"viability, T/C",[22],82.3%
same,"viability, T/C",[23],56.9%
same,"viability, T/C",[24],50.2%
same,"viability, T/C",[25],77.9%
same,"viability, T/C",[26],79.7%
same,"viability, T/C",[27],84.4%
same,"viability, T/C",[28],75.9%
same,"viability, T/C",[29],54.2%
same,"viability, T/C",[30],45.5%
same,"viability, T/C",[31],84.1%
same,"viability, T/C",[32],83.1%
same,"viability, T/C",[33],79%
same,"viability, T/C",[34],74%
same,"viability, T/C",[35],50.6%
same,"viability, T/C",[36],44.8%
C=CCn1c(=O)c2cnc(Nc3ccc(N4CCN(C)CC4)cc3)nc2n1-c1cccc(C(C)(C)O)n1 + Cc1cccc(N(C)C(=O)C2C(O)CCN2c2nc(C)cc(C(F)(F)F)c2C#N)c1,IC50,second compound 0.0316 µM,> 1 µM
same,IC50,second compound 0.1 µM,> 1 µM
same,IC50,second compound 0.316 µM,> 1 µM
same,IC50,second compound 1 µM,> 1 µM
same,IC50,second compound 3.16 µM,> 1 µM
same,IC50,second compound 10 µM,> 1 µM
same,"viability, T/C","second compound 0.0316 µM, first compound 0.00316 µM",108%
same,"viability, T/C","second compound 0.0316 µM, first compound 0.01 µM",88.7%
same,"viability, T/C",[1],95.2%
same,"viability, T/C",[2],111%
same,"viability, T/C",[3],105%
same,"viability, T/C",[4],81.8%
same,"viability, T/C","second compound 0.1 µM, first compound 0.00316 µM",111%
same,"viability, T/C","second compound 0.1 µM, first compound 0.01 µM",113%
same,"viability, T/C",[7],103%
same,"viability, T/C",[8],113%
same,"viability, T/C",[9],95.9%
same,"viability, T/C",[10],80.8%
same,"viability, T/C","second compound 0.316 µM, first compound 0.00316 µM",101%
same,"viability, T/C","second compound 0.316 µM, first compound 0.01 µM",103%
same,"viability, T/C",[13],108%
same,"viability, T/C",[14],93.3%
same,"viability, T/C",[15],89.3%
same,"viability, T/C",[16],73.7%
same,"viability, T/C","second compound 1 µM, first compound 0.00316 µM",86%
same,"viability, T/C","second compound 1 µM, first compound 0.01 µM",102%
same,"viability, T/C",[19],111%
same,"viability, T/C",[20],99.5%
same,"viability, T/C",[21],122%
same,"viability, T/C",[22],86%
same,"viability, T/C","second compound 3.16 µM, first compound 0.00316 µM",103%
same,"viability, T/C","second compound 3.16 µM, first compound 0.01 µM",105%
same,"viability, T/C",[25],104%
same,"viability, T/C",[26],112%
same,"viability, T/C",[27],113%
same,"viability, T/C",[28],89.3%
same,"viability, T/C","second compound 10 µM, first compound 0.00316 µM",105%
same,"viability, T/C","second compound 10 µM, first compound 0.01 µM",89%
same,"viability, T/C",[31],94.3%
same,"viability, T/C",[32],94.1%
same,"viability, T/C",[33],102%
same,"viability, T/C",[34],83.6%
Nc1ccn(C2OC(CO)C(O)C2(F)F)c(=O)n1 (stereo not drawn) + Nc1ccc(C#CCN(C(=O)Cc2ncc(C(F)(F)F)cc2C(F)(F)F)c2ccc(F)cc2)nn1,IC50,second compound 0.0316 µM,< 0.0316 µM
same,IC50,second compound 0.1 µM,< 0.0316 µM
same,IC50,second compound 0.316 µM,< 0.0316 µM
same,IC50,second compound 1 µM,< 0.0316 µM
same,IC50,second compound 3.16 µM,< 0.0316 µM
same,IC50,second compound 10 µM,< 0.0316 µM
same,"viability, T/C",[1],36.5%
same,"viability, T/C",[2],35.5%
same,"viability, T/C",[3],38.9%
same,"viability, T/C",[4],38%
same,"viability, T/C",[5],37.6%
same,"viability, T/C",[6],35%
same,"viability, T/C",[7],43%
same,"viability, T/C",[8],41.8%
same,"viability, T/C",[9],38.7%
same,"viability, T/C",[10],39.8%
same,"viability, T/C",[11],38.5%
same,"viability, T/C",[12],41.8%
same,"viability, T/C",[13],48.2%
same,"viability, T/C",[14],38.5%
same,"viability, T/C",[15],36%
same,"viability, T/C",[16],38%
same,"viability, T/C",[17],38.9%
same,"viability, T/C",[18],37.3%
same,"viability, T/C",[19],36.3%
same,"viability, T/C",[20],35.3%
same,"viability, T/C",[21],46.5%
same,"viability, T/C",[22],35%
same,"viability, T/C",[23],38.2%
same,"viability, T/C",[24],29.6%
same,"viability, T/C",[25],36.4%
same,"viability, T/C",[26],35.2%
same,"viability, T/C",[27],39.9%
same,"viability, T/C",[28],36.2%
same,"viability, T/C",[29],37.5%
same,"viability, T/C",[30],36.5%
same,"viability, T/C",[31],39.5%
same,"viability, T/C",[32],38.1%
same,"viability, T/C",[33],32.8%
same,"viability, T/C",[34],39.9%
same,"viability, T/C",[35],31.2%
same,"viability, T/C",[36],42.6%
